Read-outs that look alike come from different tables or passages of the source.
Columns and labels:
[1] = system: human liver cells (HepG2); experiment: MTT viability assay; conditions: for % viability 1 / % viability 2 / % viability 3: 48 hrs; for toxicity to HepG2 cells (in words): HepG2, MTT, up to 400 μM (Defensin 100 μM)
Protocol: (§1) Cells were harvested and resuspended in growth media (5-10 ml) to count. Cells were diluted to the appropriate concentration (5×10^3), and seeded into 96-well plates as follows: (a) 50 μl of cells per well, (b) 100 μl of growth media in the Blank wells, (c) 100 μl PBS in outer wells (to prevent dehydration of media from the cells). Cells were incubated overnight at 37° C. (5% CO2).
(§2) Compounds were prepared as serial dilutions in growth media. Each treatment concentration was performed in triplicate. 50 μl/well of prepared compound was added to cells.
(§3) A no treatment triplicate (100% viability) was also included by adding 50 μl of growth media to cells. Plates were returned to the incubator for 48 hrs.
(§4) MTT powder in 1×PBS was prepared at 5 mg/ml and filter sterilised. MTT was added to serum-free media to a final concentration of 1 mg/ml. 100 μl of the MTT solution (1 mg/ml) was added to each well, including 0 μM and blank wells. Plates were incubated at 37° C. in incubator for 3 hrs. Following incubation, the media was removed from wells without disrupting the purple crystals formed. 100 μl of DMSO was added to each well using a multichannel pipette. The plates were shaken on the plate shaker until all the crystals have dissolved. The absorbance was measured at 570 nm using a plate reader. The data was analysed using Microsoft Excel. For each treatment concentration the average was calculated, the blank was subtracted and the cell viability was determined as a percentage of the no treatment control (DMSO vehicle control).

[2] = system: human kidney cells (HEK293); experiment: MTT viability assay; conditions: for % Viability Remaining 1 / % Viability Remaining 2 / % Viability Remaining 3: 48 hrs; for toxicity to HEK293 cells (in words): HEK293, MTT, up to 400 μM (Defensin 100 μM)
Protocol: as §1, §2, §3, §4

[3] = system: Klebsiella pneumoniae 13368; experiment: Broth microdilution MIC; type: cell-based
Procedure, shortened: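 Broth microdilution per EUCAST guidelines: overnight TSB cultures (37° C) diluted to 1×10^6 bacteria/ml (OD600=0.01) in TSB, exposed to compounds at various concentrations for 20 hrs at 37° C. Growth read as absorbance at 600 nm; MIC taken as lowest concentration inhibiting visible growth.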

[4] = system: Gram-positive and Gram-negative bacterial species; experiment: Broth microdilution MIC, panel summary; type: cell-based; conditions: read-out: MIC values
Protocol: Assays were carried out by a broth microdilution method using a 96-well plate according to guidelines defined by the European Committee on Antimicrobial Susceptibility Testing as described here. Overnight cultures of strains were grown in tryptic soy broth (TSB) at 37° C. The overnight cultures were diluted to a concentration of 1×10^6 bacteria/ml (OD600=0.01) in TSB media. To each well on 96 well plates, 100 μl of bacterially infected media at a concentration of 1×10^6/ml and compounds at various concentrations were added. An uninfected control (i.e. no bacteria) was also included. The plates were incubated at 37° C. wrapped in parafilm for 20 hrs. The growth was assessed by measuring the absorbance at 600 nm. The minimum inhibitory concentration (MIC) was determined to be the lowest concentration of compound that inhibits visible bacterial growth.

[5] = Klebsiella pneumoniae 13368, replicate 1, read-out: MIC #1
[6] = Klebsiella pneumoniae 13368, replicate 2, read-out: MIC #2
[7] = Klebsiella pneumoniae 13368, replicate 3, read-out: MIC #3

COc1ccc(/C=C2\SC(=O)N(CC(=O)O)C2=O)cc1 [Compound 5, (Z)-2-(5-(4-Methoxybenzylidene)-2,4-dioxothiazolidin-3-yl)acetic Acid]
% viability 1 ([1]; HepG2, 12.5 μM): 111%
% viability 2 ([1]; HepG2, 12.5 μM): 107%
% viability 3 ([1]; HepG2, 12.5 μM): 105%
% viability 1 ([1]; HepG2, 25 μM): 111%
% viability 2 ([1]; HepG2, 25 μM): 106%
% viability 3 ([1]; HepG2, 25 μM): 105%
% viability 1 ([1]; HepG2, 50 μM): 102%
% viability 2 ([1]; HepG2, 50 μM): 91.9%
% viability 3 ([1]; HepG2, 50 μM): 104%
% viability 1 ([1]; HepG2, 100 μM): 111%
% viability 2 ([1]; HepG2, 100 μM): 105%
% viability 3 ([1]; HepG2, 100 μM): 84.8%
% viability 1 ([1]; HepG2, 200 μM): 78.7%
% viability 2 ([1]; HepG2, 200 μM): 110%
% viability 3 ([1]; HepG2, 200 μM): 94.4%
% viability 1 ([1]; HepG2, 400 μM): 82.1%
% viability 2 ([1]; HepG2, 400 μM): 84.9%
% viability 3 ([1]; HepG2, 400 μM): 92.5%
toxicity to HepG2 cells (in words) [1]: effectively nontoxic
% Viability Remaining 1 ([2]; HEK293, 12.5 μM): 105%
% Viability Remaining 2 ([2]; HEK293, 12.5 μM): 103%
% Viability Remaining 3 ([2]; HEK293, 12.5 μM): 85.0%
% Viability Remaining 1 ([2]; HEK293, 25 μM): 105%
% Viability Remaining 2 ([2]; HEK293, 25 μM): 103%
% Viability Remaining 3 ([2]; HEK293, 25 μM): 85.0%
% Viability Remaining 1 ([2]; HEK293, 50 μM): 92.3%
% Viability Remaining 2 ([2]; HEK293, 50 μM): 101%
% Viability Remaining 3 ([2]; HEK293, 50 μM): 90.8%
% Viability Remaining 1 ([2]; HEK293, 100 μM): 106%
% Viability Remaining 2 ([2]; HEK293, 100 μM): 103%
% Viability Remaining 3 ([2]; HEK293, 100 μM): 82.8%
% Viability Remaining 1 ([2]; HEK293, 200 μM): 82.7%
% Viability Remaining 2 ([2]; HEK293, 200 μM): 86.0%
% Viability Remaining 3 ([2]; HEK293, 200 μM): 84.9%
% Viability Remaining 1 ([2]; HEK293, 400 μM): 96.4%
% Viability Remaining 2 ([2]; HEK293, 400 μM): 91.3%
% Viability Remaining 3 ([2]; HEK293, 400 μM): 89.1%
toxicity to HEK293 cells (in words) [2]: effectively nontoxic
MIC [3, 5]: > 64 mg/L
MIC [3, 6]: > 64 mg/L
MIC [3, 7]: > 64 mg/L

COc1ccccc1/C=C1\SC(=O)N(CC(=O)O)C1=O [Compound 3, (Z)-2-(5-(2-Methoxybenzylidene)-2,4-dioxothiazolidin-3-yl)acetic Acid]
% viability 1 ([1]; HepG2, 12.5 μM): 110%
% viability 2 ([1]; HepG2, 12.5 μM): 104%
% viability 3 ([1]; HepG2, 12.5 μM): 92.2%
% viability 1 ([1]; HepG2, 25 μM): 80.2%
% viability 2 ([1]; HepG2, 25 μM): 86.4%
% viability 3 ([1]; HepG2, 25 μM): 91.4%
% viability 1 ([1]; HepG2, 50 μM): 106.4%
% viability 2 ([1]; HepG2, 50 μM): 89.9%
% viability 3 ([1]; HepG2, 50 μM): 98.7%
% viability 1 ([1]; HepG2, 100 μM): 80.2%
% viability 2 ([1]; HepG2, 100 μM): 89.3%
% viability 3 ([1]; HepG2, 100 μM): 82.2%
% viability 1 ([1]; HepG2, 200 μM): 84.2%
% viability 2 ([1]; HepG2, 200 μM): 96.5%
% viability 3 ([1]; HepG2, 200 μM): 92.9%
% viability 1 ([1]; HepG2, 400 μM): 76.2%
% viability 2 ([1]; HepG2, 400 μM): 87.9%
% viability 3 ([1]; HepG2, 400 μM): 87.5%
toxicity to HepG2 cells (in words) [1]: effectively nontoxic
% Viability Remaining 1 ([2]; HEK293, 12.5 μM): 73.4%
% Viability Remaining 2 ([2]; HEK293, 12.5 μM): 104%
% Viability Remaining 3 ([2]; HEK293, 12.5 μM): 99.0%
% Viability Remaining 1 ([2]; HEK293, 25 μM): 100%
% Viability Remaining 2 ([2]; HEK293, 25 μM): 86.3%
% Viability Remaining 3 ([2]; HEK293, 25 μM): 83.8%
% Viability Remaining 1 ([2]; HEK293, 50 μM): 78.5%
% Viability Remaining 2 ([2]; HEK293, 50 μM): 80.4%
% Viability Remaining 3 ([2]; HEK293, 50 μM): 92.2%
% Viability Remaining 1 ([2]; HEK293, 100 μM): 84.2%
% Viability Remaining 2 ([2]; HEK293, 100 μM): 93.0%
% Viability Remaining 3 ([2]; HEK293, 100 μM): 91.6%
% Viability Remaining 1 ([2]; HEK293, 200 μM): 82.5%
% Viability Remaining 2 ([2]; HEK293, 200 μM): 89.8%
% Viability Remaining 3 ([2]; HEK293, 200 μM): 94.3%
% Viability Remaining 1 ([2]; HEK293, 400 μM): 72.3%
% Viability Remaining 2 ([2]; HEK293, 400 μM): 106%
% Viability Remaining 3 ([2]; HEK293, 400 μM): 85.6%
toxicity to HEK293 cells (in words) [2]: effectively nontoxic
MIC [3, 5]: > 64 mg/L
MIC [3, 6]: > 64 mg/L
MIC [3, 7]: > 64 mg/L
MIC [4]: > 64 mg/L

— US20200068890A1 (Person to Whom the Inventor is Obligated to Assign, priority 2017, published 2020)
